Ten compounds from patent publication US20230295133A1, “PROCESS FOR PREPARING A COMPOUND USEFUL TO TREAT MYCOSES” (PULMOCIDE LIMITED, priority 2014, published 2023) can be followed below.

Series [1] can be described thus: Cell viability: resazurin assay. Particulars: human, BEAS2B cells; n = 3-5. It counts as cell-based, human. Here is the method: BEAS2B cells were seeded in 384-well plates (100 µL; 3000 / well /; BD Falcon, Catalogue No 353962) in RPMI-LHC8 (RPMI-1640 and LHC8 media combined in equal proportions) one day before experimentation. For cell-free control wells, RPMI-LHC8 (100 µL) was added. Test compounds (0.5 µL of a DMSO solution) were added to give a final DMSO concentration of 0.5% using an Integra VIAFLO 96 (Integra, Zizers, Switzerland). BEAS2B cells were incubated with each test compound for 1 day (37° C. / 5% CO2 in RPMI-LHC8). After addition of resazurin stock solution (5 µL, 0.04%) the plates were incubated for a further 4 hr (37° C. / 5% CO2). The fluorescence of each well at 545 nm (excitation) and 590 nm (emission) was determined using a multi-scanner (Clariostar: BMG Labtech). The percentage loss of cell viability was calculated for each well relative to vehicle (0.5% DMSO) treatment. Where appropriate, a CC50 value was calculated from the concentration-response curve generated from the concentration-response curve for each test compound.

The test system of series [2] is aspergillus fumigatus infection of BEAS2B cells. In words: Aspergillus fumigatus infection of bronchial epithelial cells (GM in supernatant). Particulars: bronchial epithelial cells infected with Aspergillus fumigatus; read-out: MIC50 Infection of BEAS2B cells. It counts as cell-based. On the procedure: BEAS2B cells were seeded in 96-well plates (100 µL; 30,000 cells / well; Catalogue No 3596, Sigma Aldrich, Dorset, UK) in 10% FBS RPMI-1640 and were then incubated (37° C., 5% CO2) for one day before experimentation. Test compounds (0.5 µL DMSO solution) or vehicle (DMSO) were added to each well to give a final DMSO concentration of 0.5%. BEAS2B cells were incubated with test compounds for 1 hr (35° C., 5% CO2) before infection with aspergillus fumigatus (20 µL; Public Health England) conidia suspension (0.5×10^5 /ml in 10% FBS RPMI-1640). The plate was incubated for 24 hr (35° C., 5% CO2). Supernatant (50 µL) was collected and transferred to a PCR plate (Catalogue No L1402-9700, Starlab, Milton Keynes, UK), which was frozen (-20° C.) until use. After thawing, supernatant (5 µL) was diluted 1:20 by adding R7-PBS solution (95 µL; 1:4 R7 to PBS; Bio-Rad Laboratories, Redmond, WA, USA). GM levels in these samples (50 µL) were measured using Platelia GM-EIA kits (Bio-Rad Laboratories, Redmond, WA, USA). The percentage inhibition for each well was calculated and the IC50 value was calculated from the concentration-response curve generated for each test compound.

In series [3] the test system is Aspergillus fumigatus NCPF2010. The experiment in a line: Broth microdilution assay (modified EUCAST). It is filed as cell-based. Particulars: Aspergillus fumigatus, NCPF2010, read-out: MIC75 against Aspergillus fumigatus isolate NCPF2010. Here is the method: (§1) This assay was conducted using a modified method published by EUCAST (Rodriguez-Tudela et al., 2008). Spores of aspergillus fumigatus (NCPF2010, NCPF7010 (Methionine 220 mutation), NCPF7099 (Glycine G54 mutation) from Public Health England, Wiltshire; TR34/L98H mutants from St Louis Hospital, Paris, France) were cultured in Sabouraud dextrose agar for 3 days. A stock spore suspension was prepared from a Sabouraud dextrose agar culture by washing with PBS-tween (10 mL; PBS containing 0.05% Tween-20, 100 U/mL Penicillin and 100 U/mL Streptomycin). The spore count was assessed using a Neubauer haemocytometer and then adjusted to 10^6 spores/mL with PBS. A working suspension of spores (2 × 10^5 spores/mL) was prepared in filter sterilised, BSA MOPS RPMI-1640 (50 mL; RPMI-1640 containing 2 mM L-glutamine, 0.5% BSA, 2% glucose, 0.165 M MOPS, buffered to pH 7 with NaOH). For the assay, BSA MOPS RPMI-1640 (50 µL/well) was added throughout the 384-well plate (Catalogue number 353962, BD Falcon, Oxford, UK) first. Test compounds (0.5 µL DMSO solution) were then added in quadruplicate using an Integra VIAFLO 96 (Integra, Zizers, Switzerland), and mixed well using a plate mixer. Subsequently 50 µL of the working spore suspension prepared above was added to all wells except non-spore control wells. For non-spore control wells, BSA MOPS-RPMI solution (50 µL/well) was added instead. The plate was covered with a plastic lid, and incubated (35° C. with ambient air) for 48 hr. The OD of each well at 530 nm was determined using a multi-scanner (Clariostar: BMG, Buckinghamshire, UK). The percentage inhibition for each well was calculated and the MIC50, MIC75 and MIC90 values were calculated from the concentration-response curve generated for each test compound.
(In general: Broth dilution looks for growth in wells or tubes with falling amounts of substance.)

The subject of series [4] is Aspergillus fumigatus NCPF7099. In words: Broth microdilution assay (modified EUCAST). It counts as cell-based. Particulars: Aspergillus fumigatus, NCPF7099, n = 3, read-out: MIC75 against Aspergillus fumigatus isolate NCPF7099. Here is the method: as §1
For series [5], the system named is Aspergillus fumigatus L98H (TR34/L98H). The experiment in a line: Broth microdilution assay (modified EUCAST). Particulars: Aspergillus fumigatus, read-out: MIC75 against Aspergillus fumigatus isolate L98H. It is filed as cell-based. Here is the method: as §1
For series [6], the system named is Aspergillus fumigatus NCPF7100. In words: Broth microdilution assay (modified EUCAST). Particulars: Aspergillus fumigatus, NCPF7100, read-out: MIC75 against Aspergillus fumigatus isolate NCPF7100. It counts as cell-based.

≈ marks a conversion by molar mass, not a printed value.

For `Cc1cc(N2CCN(c3ccc(C(=O)Nc4cccc(C#N)n4)cc3)CC2)ccc1OC[C@@H]1CO[C@@](Cn2cncn2)(c2ccc(F)cc2F)C1` [Example 36, 4-(4-(4-(((3R, 5R)-5-((1H-1,2,4-triazol-1-yl)methyl)-5-(2,4-difluorophenyl)tetrahydrofuran-3-yl)methoxy)3-methylphenyl)piperazin-1-yl)-N-(6-cyanopyridin-2-yl)benzamide], the CC50 (usually the concentration at which the toxic effect on the cells reaches its halfway point) at 1 day in series [1] was above 14.5 µM. For the same compound, in series [2], the MIC50 (usually an inhibitory concentration at the 50% level, which refers to growth in some studies and to a panel of isolates in others) was 0.00352 µM (≈ 0.00243 µg/mL). For the same compound, the MIC in series [3] is 0.041 µM (≈ 0.0283 µg/mL); in series [4], 0.0445 µM (≈ 0.0307 µg/mL); in series [5], 0.134 µM (≈ 0.0926 µg/mL); in series [6], 0.0346 µM (≈ 0.0239 µg/mL).
Take `COc1cc(C(=O)Nc2ccc(F)cc2)ccc1N1CCN(c2ccc(OC[C@@H]3CO[C@@](Cn4cncn4)(c4ccc(F)cc4F)C3)c(C)c2)CC1` [Example 34, 4-(4-(4-(((3R, 5R)-5-((1H-1,2,4-triazol-1-yl)methyl)-5-(2,4-difluorophenyl)tetrahydrofuran-3-yl)methoxy)3-methylphenyl)piperazin-1-yl)-N-(4-fluorophenyl)-3-methoxybenzamide]: in series [1], the CC50 at 1 day was above 14 µM. In series [2], the MIC50 came out at 0.0219 µM (≈ 0.0156 µg/mL). Further, the MIC in series [3] turned out to be 0.0446 µM (≈ 0.0318 µg/mL); in series [4], 0.029 µM (≈ 0.0207 µg/mL); in series [5] it was 0.0739 µM (≈ 0.0527 µg/mL); in series [6], 0.0148 µM (≈ 0.0105 µg/mL).
In turn, `COc1cc(N2CCN(c3ccc(OC[C@@H]4CO[C@@](Cn5cncn5)(c5ccc(F)cc5F)C4)c(C)c3)CC2)ccc1C(=O)Nc1ccc(F)cc1` [Example 35, 4-(4-(4-(((3R,5R)-5-((1H-1,2,4-triazol-1-yl)methyl)-5-(2,4-difluorophenyl)tetrahydrofuran-3-yl)methoxy)-3-methylphenyl)piperazin-1-yl)-N-(4-fluorophenyl)-2-methoxybenzamide] gave a CC50 at 1 day in series [1] above 14 µM. The MIC50 in series [2] was found to be 0.125 µM (≈ 0.0891 µg/mL). Moreover, the MIC in series [3] was found to be 0.0634 µM (≈ 0.0452 µg/mL); in series [4], 0.109 µM (≈ 0.0777 µg/mL); in series [5], 0.178 µM (≈ 0.127 µg/mL); in series [6], 0.111 µM (≈ 0.0791 µg/mL).
In series [1], `Cc1cc(N2CCN(c3ccc(C(=O)Nc4cccc(F)c4)cc3)CC2)ccc1OC[C@@H]1CO[C@@](Cn2cncn2)(c2ccc(F)cc2F)C1` [Example 14, 4-(4-(4-(((3R, 5R)-5-((1H-1,2,4-triazol-1-yl)methyl)-5-(2,4-difluorophenyl)tetrahydrofuran-3-yl)methoxy)3-methylphenyl)piperazin-1-yl)-N-(3-fluorophenyl)benzamide] showed a 50% cytotoxic concentration (CC50) at 1 day above 14.6 µM. The MIC50 in series [2] was found to be 0.00836 µM (≈ 0.00571 µg/mL). Further, the MIC was found to be 0.0431 µM (≈ 0.0294 µg/mL) in series [3], 0.0332 µM (≈ 0.0227 µg/mL) in series [4], 0.0735 µM (≈ 0.0502 µg/mL) in series [5] and 0.041 µM (≈ 0.028 µg/mL) in series [6].
In series [1], `Cc1cc(N2CCN(c3ccc(C(=O)Nc4cc(C#N)ccn4)cc3)CC2)ccc1OC[C@@H]1CO[C@@](Cn2cncn2)(c2ccc(F)cc2F)C1` [Example 37, 4-(4-(4-(((3R,5R)-5-((1H-1,2,4-triazol-1-yl)methyl)-5-(2,4-difluorophenyl)tetrahydrofuran-3-yl)methoxy)-3-methylphenyl)piperazin-1-yl)-N-(4-cyanopyridin-2-yl)benzamide] came in with a CC50 at 1 day above 14.5 µM. Further, the MIC50 in series [2] is 0.0188 µM (≈ 0.013 µg/mL). Besides, the MIC in series [3] stood at 0.0284 µM (≈ 0.0196 µg/mL); in series [4], 0.0246 µM (≈ 0.017 µg/mL); in series [5], 0.194 µM (≈ 0.134 µg/mL); in series [6] it was 0.022 µM (≈ 0.0152 µg/mL).
As for `Cc1cc(N2CCN(c3ccc(C(=O)Nc4ccc(S(=O)(=O)N(C)C)cc4)cc3)CC2)ccc1OC[C@@H]1CO[C@@](Cn2cncn2)(c2ccc(F)cc2F)C1` [Example 21], the CC50 at 1 day in series [1] is above 13 µM. The MIC50 in series [2] was 0.00386 µM (≈ 0.00298 µg/mL). For the same compound, the MIC in series [3] amounted to 0.0374 µM (≈ 0.0289 µg/mL); in series [4] it was 0.0211 µM (≈ 0.0163 µg/mL); in series [5], 0.0517 µM (≈ 0.0399 µg/mL); in series [6], 0.0317 µM (≈ 0.0245 µg/mL).
Compound `Cc1cc(N2CCN(c3ccc(C(=O)Nc4ccc(F)cc4)cc3C)CC2)ccc1OC[C@@H]1CO[C@@](Cn2cncn2)(c2ccc(F)cc2F)C1` [Example 32, 4-(4-(4-(((3R,5R)-5-((1H-1,2,4-triazol-1-yl)methyl)-5-(2,4-difluorophenyl)tetrahydrofuran-3-yl)methoxy)-3-methylphenyl)piperazin-1-yl)-N-(4-fluorophenyl)-3-methylbenzamide] yielded a CC50 at 1 day in series [1] above 14.4 µM. Further, in series [2], the MIC50 amounted to 0.0261 µM (≈ 0.0182 µg/mL). In addition, the MIC in series [3] came to 0.0697 µM (≈ 0.0486 µg/mL); in series [4], 0.0481 µM (≈ 0.0335 µg/mL); in series [5] it was 0.0695 µM (≈ 0.0484 µg/mL); in series [6], 0.0609 µM (≈ 0.0424 µg/mL).
Compound `N#Cc1ccc(NC(=O)c2ccc(N3CCN(c4ccc(OC[C@@H]5CO[C@@](Cn6cncn6)(c6ccc(F)cc6F)C5)c(CO)c4)CC3)cc2)nc1` [Example 38, 4-(4-(4-(((3R, 5R)-5-((1H-1,2,4-triazol-1-yl)methyl)-5-(2,4-difluorophenyl)tetrahydrofuran-3-yl)methoxy)-3-hydroxymethylphenyl)piperazin-1-yl)-N-(5-cyanopyridin-2-yl)benzamide] gave a CC50 at 1 day in series [1] above 14.1 µM. In addition, the MIC50 in series [2] came to 0.00486 µM (≈ 0.00343 µg/mL). Besides, the MIC came to 0.0124 µM (≈ 0.00876 µg/mL) in series [3], 0.0319 µM (≈ 0.0225 µg/mL) in series [4], 0.0654 µM (≈ 0.0462 µg/mL) in series [5] and 0.0336 µM (≈ 0.0237 µg/mL) in series [6].
With `NS(=O)(=O)c1ccc(NC(=O)c2ccc(N3CCN(c4ccc(OCC5CO[C@@](Cn6cncn6)(c6ccc(F)cc6F)C5)c(F)c4)CC3)cc2)cc1` (stereo in doubt) [Example 22, 4-(4-(4-(((3R,5R)-5-((1H-1,2,4-triazol-1-yl)methyl)-5-(2,4-difluorophenyl)tetrahydrofuran-3-yl)methoxy)-3-fluorophenyl)piperazin-1-yl)-N-(4-sulfamoylphenyl)benzamide], the CC50 at 1 day in series [1] is above 13.4 µM. For the same compound, in series [2], the MIC50 was 0.00477 µM (≈ 0.00357 µg/mL). In addition, the MIC in series [3] was 0.0113 µM (≈ 0.00845 µg/mL); in series [4], 0.0164 µM (≈ 0.0123 µg/mL); in series [5], above 1.34 µM; in series [6], 0.022 µM (≈ 0.0165 µg/mL).
For `Cc1cc(N2CCN(c3ccc(C(=O)Nc4ccc(Cl)c(F)c4)cc3)CC2)ccc1OC[C@@H]1CO[C@@](Cn2cncn2)(c2ccc(F)cc2F)C1` [Example 30, 4-(4-(4-(((3R, 5R)-5-((1H-1,2,4-triazol-1-yl)methyl)-5-(2,4-difluorophenyl)tetrahydrofuran-3-yl)methoxy)-3-methylphenyl)piperazin-1-yl)-N-(4-chloro-3-fluorophenyl)benzamide], in series [1], the CC50 at 1 day is above 13.9 µM. Moreover, the MIC50 in series [2] was 1.05 µM (≈ 0.753 µg/mL). The MIC was found to be 0.0584 µM (≈ 0.0419 µg/mL) in series [3], 0.0347 µM (≈ 0.0249 µg/mL) in series [4], 0.191 µM (≈ 0.137 µg/mL) in series [5] and 0.0413 µM (≈ 0.0296 µg/mL) in series [6].
